Assay results published in DBAASP.
In brackets after ≈: the same amount, converted by molar mass. Several values for one entry are separate records, joined by “and”; a condition that tells them apart may be missing. Equal values may be shown once.

How the values were obtained:
Test in all cases: ≥ marks a high value that may be exact or a test limit, other limits are often not marked, values filed in µg/mL are converted to µM
[1] = test system: Staphylococcus aureus
[2] = test system: Escherichia coli
[3] = test system: Escherichia coli ATCC 25922
[4] = test system: Xanthomonas campestris pv. campestris
[5] = test system: Streptococcus pneumoniae TIGR4
[6] = test system: Candida albicans SC5314
[7] = test system: Xanthomonas oryzae pv. oryzae
[8] = test system: Klebsiella pneumoniae
[9] = test system: Staphylococcus aureus ATCC 29213
[10] = test system: Pseudomonas aeruginosa ATCC 27853
[11] = test system: Pseudomonas syringae
[12] = test system: Xanthomonas vesicatoria
[13] = test system: Pseudomonas aeruginosa
[14] = test system: Cryptococcus neoformans var. grubii H99
[15] = test system: Streptococcus pyogenes AP1
[16] = test system: Trichophyton rubrum ATCC 28189
[17] = test system: Candida albicans ATCC 24433
[18] = test system: Candida parapsilosis ATCC 22019
[19] = test system: Staphylococcus aureus ATCC 43300
[20] = test system: Enterococcus faecalis NCTC 12697
[21] = test system: Staphylococcus aureus NCTC 10788
[22] = test system: Escherichia coli NCTC 10418
[23] = test system: Candida albicans NCPE 1467
[24] = test system: Staphylococcus aureus NCTC 12493
[25] = test system: Chromobacterium violaceum ATCC 12472
[26] = test system: Staphylococcus aureus ATCC 12600
[27] = test system: Acinetobacter baumannii
[28] = test system: Klebsiella pneumoniae KpC+001825971
[29] = test system: Enterobacter cloacae
[30] = test system: Staphylococcus aureus MR
[31] = test system: Klebsiella pneumoniae ATCC 13883
[32] = test system: Staphylococcus aureus ATCC 25923
[33] = test system: Pseudomonas aeruginosa PAO1
[34] = test system: Pseudomonas aeruginosa PA14
[35] = test system: Escherichia coli KpC+001812446
[36] = test system: Escherichia coli BL21
[37] = test system: Enterococcus faecium ATCC 700221
[38] = test system: Klebsiella pneumoniae ATCC 700603
[39] = test system: Acinetobacter baumannii ATCC BAA-1605
[40] = test system: Staphylococcus aureus ATCC 33591
[41] = test system: Micrococcus luteus ATCC 49732
[42] = test system: Aeromonas hydrophila ATCC 35654

CC[C@H](C)[C@H](NC(=O)[C@H](CCC(=O)O)NC(=O)[C@H](Cc1ccc(O)cc1)NC(=O)[C@@H](N)CCCCN)C(=O)N[C@H](C(=O)N[C@H](C(=O)N[C@H](C(=O)N[C@@H](Cc1cnc[nH]1)C(=O)N[C@@H](CC(N)=O)C(=O)N[C@@H](CC(C)C)C(=O)N[C@@H](Cc1ccccc1)C(=O)N[C@@H](CCCN=C(N)N)C(=O)N[C@@H](CCCCN)C(=O)N[C@@H](CC(C)C)C(=O)N[C@H](C(=O)N[C@@H](Cc1cnc[nH]1)C(=O)N[C@@H](CCCN=C(N)N)C(=O)N[C@@H](CC(C)C)C(=O)N[C@@H](Cc1ccccc1)C(=O)N[C@@H](CCCN=C(N)N)C(=O)N[C@@H](CCCN=C(N)N)C(=O)N[C@@H](CC(N)=O)C(=O)N[C@@H](Cc1ccccc1)C(=O)NCC(=O)N[C@@H](Cc1ccc(O)cc1)C(=O)N[C@H](C(=O)N[C@@H](CC(C)C)C(=O)N[C@@H](CCCN=C(N)N)C(=O)O)[C@@H](C)O)[C@@H](C)O)[C@@H](C)CC)[C@@H](C)O)[C@@H](C)O [KYEITTIHNLFRKLTHRLFRRNFGYTLR]
MIC [1]: 5 µM (≈ 18 µg/mL) | MIC [2]: 3.54 µM (≈ 12.7 µg/mL) | MIC [3]: 10 µM (≈ 36 µg/mL) | MIC [4]: 5 µM (≈ 18 µg/mL) | MIC [5]: 5 µM (≈ 18 µg/mL) | MIC [6]: 25 µM and ≥ 50 µM | MIC [7]: 5 µM (≈ 18 µg/mL) | MIC [8]: 10 µM and 25 µM | MIC [9]: 5 µM (≈ 18 µg/mL) | MIC [10]: 10 µM (≈ 36 µg/mL) | MIC [11]: 5 µM (≈ 18 µg/mL) | MIC [12]: 1 µM (≈ 3.6 µg/mL) | MIC [13]: 14.1 µM (≈ 50.8 µg/mL) | MIC [14]: 25 µM and ≥ 50 µM | MIC [15]: 10 µM (≈ 36 µg/mL)

CC[C@H](C)[C@H](NC(=O)[C@H](CCC(=O)O)NC(=O)[C@H](CO)NC(=O)[C@H](CCCN=C(N)N)NC(=O)[C@@H](N)CO)C(=O)N[C@H](C(=O)N[C@@H](CCC(N)=O)C(=O)N[C@@H](CCCN=C(N)N)C(=O)N[C@@H](CC(C)C)C(=O)N[C@@H](Cc1ccccc1)C(N)=O)C(C)C [SRSEIVQRLF]
MIC [1]: > 324 µM | MIC [2]: > 324 µM | MIC [16]: ≥ 324 µM | MIC [17]: ≥ 324 µM | MIC [18]: ≥ 324 µM

CC[C@H](C)[C@H](NC(=O)[C@H](C)NC(=O)[C@H](C)NC(=O)[C@@H]1CCCN1C(=O)[C@@H](NC(=O)[C@H](CC(C)C)NC(=O)[C@H](CCCCN)NC(=O)[C@H](CO)NC(=O)[C@H](C)NC(=O)[C@@H](NC(=O)[C@H](CCCCN)NC(=O)[C@H](Cc1ccccc1)NC(=O)[C@H](CC(C)C)NC(=O)[C@H](C)NC(=O)CNC(=O)[C@H](CC(C)C)NC(=O)[C@@H](N)Cc1ccccc1)C(C)C)C(C)C)C(=O)N[C@H]1CSSC[C@@H](C(=O)O)NC(=O)[C@H](CCCCN)NC(=O)[C@H](CCCCN)NC(=O)[C@H](CO)NC(=O)[C@H]([C@@H](C)CC)NC(=O)[C@H](CO)NC1=O [FLGALFKVASKLVPAAICSISKKC]
MIC [19]: 51.3 µM (≈ 128 µg/mL) | MIC [20]: 12.8 µM (≈ 31.9 µg/mL) | MIC [21]: 2 µM (≈ 4.99 µg/mL) | MIC [22]: 8 µM (≈ 19.9 µg/mL) | MIC [23]: 4 µM (≈ 9.97 µg/mL) | MIC [24]: 4 µM (≈ 9.97 µg/mL) | MIC [25]: ≥ 205 µM | MIC [10]: 32 µM (≈ 79.8 µg/mL)

CC[C@H](C)[C@H](NC(=O)[C@H](CCCCN)NC(=O)[C@H](C)NC(=O)[C@H](C)NC(=O)[C@H](CC(C)C)NC(=O)[C@H](CCCN=C(N)N)NC(=O)[C@H](CC(C)C)NC(=O)[C@H](C)NC(=O)[C@H](CC(C)C)NC(=O)[C@H](CCCCN)NC(=O)[C@H](CC(C)C)NC(=O)[C@H](CCCCN)NC(=O)[C@H](CCCCN)NC(=O)[C@H](CCSC)NC(=O)[C@@H]1CCCN1)C(=O)N[C@@H](C)C(=O)N1CCC[C@H]1C(=O)N[C@H](C(=O)N[C@@H](Cc1c[nH]c2ccccc12)C(=O)O)C(C)C [PMKKLKLALRLAAKIAPVW]
MIC [26]: 16 µM (≈ 34.4 µg/mL) | MIC [3]: 8 µM (≈ 17.2 µg/mL) | MIC [27]: 4 µM (≈ 8.59 µg/mL) | MIC [28]: ≥ 32 µM | MIC [29]: ≥ 32 µM | MIC [30]: ≥ 32 µM | MIC [31]: 8 µM (≈ 17.2 µg/mL) | MIC [32]: 8 µM (≈ 17.2 µg/mL) | MIC [33]: 16 µM (≈ 34.4 µg/mL) | MIC [34]: 8 µM (≈ 17.2 µg/mL) | MIC [35]: 2 µM (≈ 4.3 µg/mL) | MIC [36]: 2 µM (≈ 4.3 µg/mL)

CC[C@H](C)[C@H](NC(=O)[C@H](CCCCN)NC(=O)[C@H](CCCN=C(N)N)NC(=O)[C@H](Cc1ccccc1)NC(=O)[C@H](CC(C)C)NC(=O)[C@H](CCCN=C(N)N)NC(=O)[C@@H](N)CCCCN)C(=O)N[C@@H](CC(C)C)C(=O)N[C@@H](CCCN=C(N)N)C(=O)N[C@@H](Cc1ccc(O)cc1)C(=O)N[C@@H](CC(C)C)C(N)=O [KRLFRKILRYL]
MIC [3]: 46.8 µM (≈ 70.5 µg/mL) | MIC [37]: 23.2 µM (≈ 35 µg/mL) | MIC [38]: 23.2 µM (≈ 35 µg/mL) | MIC [10]: 46.8 µM (≈ 70.5 µg/mL) | MIC [39]: 11.6 µM (≈ 17.5 µg/mL) | MIC [40]: ≥ 46.8 µM

CC(C)C[C@H](NC(=O)[C@H](Cc1cnc[nH]1)NC(=O)[C@H](C)NC(=O)[C@H](CCCCN)NC(=O)[C@H](CCCCN)NC(=O)[C@H](Cc1ccccc1)NC(=O)[C@H](CO)NC(=O)[C@H](CCCCN)NC(=O)[C@H](CC(=O)O)NC(=O)[C@H](Cc1cnc[nH]1)NC(=O)[C@H](Cc1c[nH]c2ccccc12)NC(=O)[C@H](CCCN=C(N)N)NC(=O)[C@H](CCC(N)=O)NC(=O)[C@H](CCC(N)=O)NC(=O)[C@H](CCCN=C(N)N)NC(=O)[C@@H](N)CCCN=C(N)N)C(=O)NCC(=O)N[C@H](C(=O)N[C@@H](C)C(=O)N[C@H](C(=O)N[C@@H](CCCCN)C(=O)N[C@@H](C)C(N)=O)C(C)C)[C@@H](C)O [RRQQRWHDKSFKKAHLGTAVKA]
MIC [3]: > 20 µM | MIC [41]: 20 µM (≈ 53 µg/mL) | MIC [42]: 20 µM (≈ 53 µg/mL) | MIC [32]: > 20 µM
